Here are results for 19 compounds from patent US20240294551A1 (AMGEN INC., priority 2022, published 2024).

One may read the IC50 as the concentration needed to halve the response being measured.

Test [1] deals with GDP-bound KRAS protein (aa 1-169), containing both G12D and C118A amino acid substitutions (Homo sapiens (Human), UniProt P01116, C118A/G12D). Briefly: KRAS G12D Coupled Nucleotide Exchange Assay. It counts as biochemical. The conditions noted are these: read-out: KRAS G12D Coupled Exchange IC50.
For test [2], the target named is His-tagged KRAS G12D protein (Homo sapiens (Human), UniProt P01116, G12D). The test can be described thus: KRAS G12D TR-FRET Assay. The conditions noted are these: read-out: KRAS G12D Binding IC50. In kind it is binding. The method, boiled down:
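Each incubation ran at room temperature: enzyme with compound for 30 minutes, peptide for one hour, and detection reagents (0.4 nM europium anti-6×His, 5 nM streptavidin-d2) for one hour more. Protein and peptide stocks were each diluted to 20 nM before addition.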
(In general: Time-resolved FRET reads energy transfer from a long-lived donor to a nearby acceptor.)

Sequence of His-tagged KRAS G12D protein (P01116 other isoform, or with tags, fused parts or gaps G12D): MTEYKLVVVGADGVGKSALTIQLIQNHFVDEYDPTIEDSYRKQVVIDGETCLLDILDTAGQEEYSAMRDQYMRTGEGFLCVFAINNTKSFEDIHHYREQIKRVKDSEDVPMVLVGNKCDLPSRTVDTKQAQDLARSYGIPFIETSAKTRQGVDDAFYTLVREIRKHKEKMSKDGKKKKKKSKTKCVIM
Sequence of GDP-bound KRAS protein (aa 1-169), containing both G12D and C118A amino acid substitutions (P01116 other isoform, or with tags, fused parts or gaps G12D/C118A): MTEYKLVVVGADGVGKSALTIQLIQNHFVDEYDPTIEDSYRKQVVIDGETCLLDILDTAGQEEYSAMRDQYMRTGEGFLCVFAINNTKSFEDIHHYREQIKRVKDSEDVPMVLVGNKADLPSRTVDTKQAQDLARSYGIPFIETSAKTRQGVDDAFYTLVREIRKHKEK

For `Cc1nc2c3cnc(c(F)c3n1)-c1c(c(C)cc3[nH]ncc13)CCCOC(=O)O[C@@H]1COCCN2C1` [Example 210, (26S)-32-fluoro-4,18-dimethyl-23,25,28-trioxa-1,3,5,9,14,15-hexaazahexacyclo[24.4.1.1~6,10~.0~2,7~.0~11,19~.0~12,16~]dotriaconta-2,4,6,8,10(32),11,13,16,18-nonaen-24-one], the IC50 in test [1] stood at 431 nM; in test [2], 435 nM.

Take `Cc1nc2c3cnc(c(F)c3n1)-c1c(c(C)cc3[nH]ncc13)[C@H]1C[C@H]1COC(=O)O[C@@H]1CCCN2C1` [Example 211, (11S,13R,18R)-31-fluoro-9,25-dimethyl-15,17-dioxa-5,6,22,24,26,30-hexaazaheptacyclo[25.3.1.1~18,22~.0~2,10~.0~3,7~.0~11,13~.0~23,28~]dotriaconta-1(31),2,4,7,9,23,25,27,29-nonaen-16-one]: the figures for the IC50 in test [1] and in test [2] were 268 nM and 617 nM, respectively.

`N#Cc1cc(Cl)c2c(c1)-c1ncc3c(nc(OC[C@@]45CCCN4C[C@H](F)C5)nc3c1F)N1CCOC[C@H](C1)OC(=O)OCCC2` [Example 216]: the results for the IC50 in test [1] and in test [2] were 55 nM and 74 nM, respectively.

For the compound `Fc1ccc2cccc3c2c1CCOCC[C@@H]1CCCN(C1)c1nc(OC[C@@]24CCCN2C[C@H](F)C4)nc2c(F)c-3ncc12` [Example 223], the values for the IC50 in test [1] and in test [2] were 343 nM and 642 nM, respectively.

Regarding `Fc1c2ncc3c(nc(OC[C@@]45CCCN4C[C@H](F)C5)nc13)N1CCO[C@@H](CCOCCCc3c(Cl)cc4[nH]ncc4c3-2)C1` [Example 224], the IC50 in test [1] worked out at 39 nM; in test [2] it was 63 nM.

On to `O[C@H]1c2ncc(o2)CCc2c(Cl)cc3[nH]ncc3c2-c2ncc3c(nc(OC[C@@]45CCCN4C[C@H](F)C5)nc3c2F)N2CCC[C@@H]1C2` [Example 234], for which the IC50 is 9 nM in test [1] and 77 nM in test [2].

Regarding `OC1CCCCc2c(Cl)cc3[nH]ncc3c2-c2ncc3c(nc(OC[C@@]45CCCN4C[C@H](F)C5)nc3c2F)N2CCOCC(C1)C2` (some centres unmarked) [Example 235], the IC50 in test [1] was 125 nM; in test [2], 240 nM.

Turning to `Cc1cc2[nH]ncc2c2c1CCCCO[C@H](C)[C@H]1CN(CCO1)c1nc(OC[C@@]34CCCN3C[C@H](F)C4)nc3c(F)c-2ncc13` [Example 241, (16R,17R)-30-fluoro-24-(((2R,7aS)-2-fluorotetrahydro-1H-pyrrolo[1,2-a]pyrrol-7a(5H)-yl)methoxy)-9,16-dimethyl-15,18-dioxa-5,6,21,23,25,29-hexaazahexacyclo[24.3.1.1~17,21~.0~2,10~.0~3,7~.0~22,27~]hentriaconta-1(30),2,4,7,9,22,24,26,28-nonaene], the IC50 in test [1] is 1410 nM; in test [2], 1290 nM.

Turning to `Cc1cc2[nH]ncc2c2c1CCCCO[C@@H](C)[C@H]1CN(CCO1)c1nc(OC[C@@]34CCCN3C[C@H](F)C4)nc3c(F)c-2ncc13` [Example 242, (16S,17R)-30-fluoro-24-(((2R,7aS)-2-fluorotetrahydro-1H-pyrrolo[1,2-a]pyrrol-7a(5H)-yl)methoxy)-9,16-dimethyl-15,18-dioxa-5,6,21,23,25,29-hexaazahexacyclo[24.3.1.1~17,21~.0~2,10~.0~3,7~.0~22,27~]hentriaconta-1(30),2,4,7,9,22,24,26,28-nonaene], the IC50 was 1050 nM in test [1] and 1140 nM in test [2].

As to `Cc1cc2[nH]ncc2c2c1CCCCO[C@H](C)[C@@H]1CN(CCO1)c1nc(OC[C@@]34CCCN3C[C@H](F)C4)nc3c(F)c-2ncc13` [Example 243, (16R,17S)-30-fluoro-24-(((2R,7aS)-2-fluorotetrahydro-1H-pyrrolo[1,2-a]pyrrol-7a(5H)-yl)methoxy)-9,16-dimethyl-15,18-dioxa-5,6,21,23,25,29-hexaazahexacyclo[24.3.1.1~17,21~.0~2,10~.0~3,7~.0~22,27~]hentriaconta-1(30),2,4,7,9,22,24,26,28-nonaene], the IC50 in test [1] turned out to be 4070 nM; in test [2], 4480 nM.

On to `Cc1cc2[nH]ncc2c2c1CCCCO[C@@H](C)[C@@H]1CN(CCO1)c1nc(OC[C@@]34CCCN3C[C@H](F)C4)nc3c(F)c-2ncc13` [Example 244, (16S,17S)-30-fluoro-24-(((2R,7aS)-2-fluorotetrahydro-1H-pyrrolo[1,2-a]pyrrol-7a(5H)-yl)methoxy)-9,16-dimethyl-15,18-dioxa-5,6,21,23,25,29-hexaazahexacyclo[24.3.1.1~17,21~.0~2,10~.0~3,7~.0~22,27~]hentriaconta-1(30),2,4,7,9,22,24,26,28-nonaene], for which the IC50 turned out to be 30 nM in test [1] and 27 nM in test [2].

Consider `Fc1c2ncc3c(nc(OC[C@@]45CCCN4C[C@H](F)C5)nc13)N1CCC[C@@H](C1)c1coc(n1)CCCc1c(Cl)cc3[nH]ncc3c1-2` [Example 245, (18S)-9-chloro-31-fluoro-25-(((2R,7aS)-2-fluorotetrahydro-1H-pyrrolo[1,2-a]pyrrol-7a(5H)-yl)methoxy)-15-oxa-5,6,22,24,26,30,33-heptaazaheptacyclo[25.3.1.1~14,17~.1~18,22~.0~2,10~.0~3,7~.0~23,28~]tritriaconta-1(31),2,4,7,9,14(33),16,23,25,27,29-undecaene], for which the IC50 in test [1] was 344 nM; in test [2], 583 nM.

`Fc1c2ncc3c(nc(OC[C@@]45CCCN4C[C@H](F)C5)nc13)N1CCC[C@H](C1)Oc1nccc(n1)CCc1c(Cl)cc3[nH]ncc3c1-2` [Example 257, (19R)-9-chloro-32-fluoro-26-(((2R,7aS)-2-fluorotetrahydro-1H-pyrrolo[1,2-a]pyrrol-7a(5H)-yl)methoxy)-18-oxa-5,6,16,23,25,27,31,34-octaazaheptacyclo[26.3.1.1~13,17~.1~19,23~.0~2,10~.0~3,7~.0~24,29~]tetratriaconta-1(32),2,4,7,9,13(34),14,16,24,26,28,30-dodecaene]: the half-inhibitory concentration (IC50) in test [1] was determined as 178 nM; in test [2], 262 nM.

Regarding `CN1C(=O)COCC[C@H]2CCc3cc4[nH]ncc4c(c32)-c2ncc3c(nc(OC[C@@]45CCCN4C[C@H](F)C5)nc3c2F)N2CCC[C@@H]1C2` [Example 278, (15R,22R)-34-fluoro-8-(((2R,7aS)-2-fluorotetrahydro-1H-pyrrolo[1,2-a]pyrrol-7a(5H)-yl)methoxy)-16-methyl-19-oxa-3,7,9,11,16,28,29-heptaazaheptacyclo[20.9.1.1~2,6~.1~11,15~.0~5,10~.0~25,32~.0~27,31~]tetratriaconta-1(31),2(34),3,5,7,9,25(32),26,29-nonaen-17-one], the values for the IC50 in test [1] and in test [2] were 5900 nM and 19300 nM, respectively.

Regarding `CN1C(=O)COCC[C@@H]2CCc3cc4[nH]ncc4c(c32)-c2ncc3c(nc(OC[C@@]45CCCN4C[C@H](F)C5)nc3c2F)N2CCC[C@@H]1C2` [Example 279, (15R,22S)-34-fluoro-8-(((2R,7aS)-2-fluorotetrahydro-1H-pyrrolo[1,2-a]pyrrol-7a(5H)-yl)methoxy)-16-methyl-19-oxa-3,7,9,11,16,28,29-heptaazaheptacyclo[20.9.1.1~2,6~.1~11,15~.0~5,10~.0~25,32~.0~27,31~]tetratriaconta-1(31),2(34),3,5,7,9,25(32),26,29-nonaen-17-one], the IC50 was determined as 71 nM in test [1] and 333 nM in test [2].

For `O=C1N[C@H]2C[C@@H](O)CN(C2)c2nc(OC[C@@]34CCCN3C[C@H](F)C4)nc3c(F)c(ncc23)-c2c(c(Cl)cc3[nH]ncc23)CCCO1` [Example 285, (17S,19R)-9-chloro-30-fluoro-24-(((2R,7aS)-2-fluorotetrahydro-1H-pyrrolo[1,2-a]pyrrol-7a(5H)-yl)methoxy)-19-hydroxy-14-oxa-5,6,16,21,23,25,29-heptaazahexacyclo[24.3.1.1~17,21~.0~2,10~.0~3,7~.0~22,27~]hentriaconta-1(30),2,4,7,9,22,24,26,28-nonaen-15-one], the IC50 in test [1] was determined as 610 nM; in test [2], 1910 nM.

Consider `CN1C(=O)OCCCc2c(Cl)cc3[nH]ncc3c2-c2ncc3c(nc(OC[C@@]45CCCN4C[C@H](F)C5)nc3c2F)N2C[C@H](O)C[C@H]1C2` [Example 287, (17S,19R)-9-chloro-30-fluoro-24-(((2R,7aS)-2-fluorotetrahydro-1H-pyrrolo[1,2-a]pyrrol-7a(5H)-yl)methoxy)-19-hydroxy-16-methyl-14-oxa-5,6,16,21,23,25,29-heptaazahexacyclo[24.3.1.1~17,21~.0~2,10~.0~3,7~.0~22,27~]hentriaconta-1(30),2,4,7,9,22,24,26,28-nonaen-15-one], for which the IC50 in test [1] is 376 nM; in test [2], 1230 nM.

With `Cc1cc2[nH]ncc2c2c1CCCOC(=O)N[C@@]1(C)CCCCN(C1)c1nc(OC[C@@]34CCCN3C[C@H](F)C4)nc3c(F)c-2ncc13` [Example 293, (26S)-32-fluoro-4-(((2R,7aS)-2-fluorotetrahydro-1H-pyrrolo[1,2-a]pyrrol-7a(5H)-yl)methoxy)-18,26-dimethyl-23-oxa-1,3,5,9,14,15,25-heptaazahexacyclo[24.4.1.1~6,10~.0~2,7~.0~11,19~.0~12,16~]dotriaconta-2,4,6(32),7,9,11,13,16,18-nonaen-24-one], the IC50 in test [1] is 16400 nM; in test [2], 50000 nM.

On to `Fc1c2ncc3c(nc(OC[C@@]45CCCN4C[C@H](F)C5)nc13)N1CCCC[C@@H](C1)c1cnn(n1)CCCc1c(Cl)cc3[nH]ncc3c1-2` [Example 295, (1S)-10-chloro-33-fluoro-24-(((2R,7aS)-2-fluorotetrahydro-1H-pyrrolo[1,2-a]pyrrol-7a(5H)-yl)methoxy)-4,5,13,14,19,23,25,27,34-nonaazaheptacyclo[25.4.1.1~2,5~.1~18,22~.0~9,17~.0~12,16~.0~21,26~]tetratriaconta-2(34),3,9,11,14,16,18(33),19,21,23,25-undecaene], for which the IC50 in test [1] is 1080 nM; in test [2], 2250 nM.
